Read-outs that look alike come from different tables or passages of the source.
Target: T1, human GluN1/GluN2B NMDA receptors (Homo sapiens, UniProt Q13224)
T1 construct: expressed in transfected cells
Experiment: Cell-based calcium flux (FLIPR) assay on cloned human NR1/NR2B ion channels expressed in mammalian cells (standard and HTS buffer variants);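 further: stable Tet-On inducible cell line, Ca2+ influx triggered by glutamate at about EC40 plus 10 µM glycine, fluorescent dye read-out over 5 min, normalized to control wells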

[1] = standard assay buffer (0.5 mM MgCl2 in dye loading buffer; 137 mM NaCl, 4 mM KCl in assay buffer), human GluN1/GluN2B, read-out: NR2B IC50 (μM) standard assay
[2] = HTS assay buffer (1.5 mM MgCl2 in dye loading buffer; 150 mM NaCl, 3 mM KCl in assay buffer), human GluN1/GluN2B, read-out: NR2B IC50 (μM) HTS assay
[3] = standard assay buffer (0.5 mM MgCl2 dye loading; 137 mM NaCl, 4 mM KCl assay buffer), human GluN1/GluN2B cells, read-out: NR2B IC50 (μM) standard assay

T1 sequence (Q13224 27-1484, other chains not shown): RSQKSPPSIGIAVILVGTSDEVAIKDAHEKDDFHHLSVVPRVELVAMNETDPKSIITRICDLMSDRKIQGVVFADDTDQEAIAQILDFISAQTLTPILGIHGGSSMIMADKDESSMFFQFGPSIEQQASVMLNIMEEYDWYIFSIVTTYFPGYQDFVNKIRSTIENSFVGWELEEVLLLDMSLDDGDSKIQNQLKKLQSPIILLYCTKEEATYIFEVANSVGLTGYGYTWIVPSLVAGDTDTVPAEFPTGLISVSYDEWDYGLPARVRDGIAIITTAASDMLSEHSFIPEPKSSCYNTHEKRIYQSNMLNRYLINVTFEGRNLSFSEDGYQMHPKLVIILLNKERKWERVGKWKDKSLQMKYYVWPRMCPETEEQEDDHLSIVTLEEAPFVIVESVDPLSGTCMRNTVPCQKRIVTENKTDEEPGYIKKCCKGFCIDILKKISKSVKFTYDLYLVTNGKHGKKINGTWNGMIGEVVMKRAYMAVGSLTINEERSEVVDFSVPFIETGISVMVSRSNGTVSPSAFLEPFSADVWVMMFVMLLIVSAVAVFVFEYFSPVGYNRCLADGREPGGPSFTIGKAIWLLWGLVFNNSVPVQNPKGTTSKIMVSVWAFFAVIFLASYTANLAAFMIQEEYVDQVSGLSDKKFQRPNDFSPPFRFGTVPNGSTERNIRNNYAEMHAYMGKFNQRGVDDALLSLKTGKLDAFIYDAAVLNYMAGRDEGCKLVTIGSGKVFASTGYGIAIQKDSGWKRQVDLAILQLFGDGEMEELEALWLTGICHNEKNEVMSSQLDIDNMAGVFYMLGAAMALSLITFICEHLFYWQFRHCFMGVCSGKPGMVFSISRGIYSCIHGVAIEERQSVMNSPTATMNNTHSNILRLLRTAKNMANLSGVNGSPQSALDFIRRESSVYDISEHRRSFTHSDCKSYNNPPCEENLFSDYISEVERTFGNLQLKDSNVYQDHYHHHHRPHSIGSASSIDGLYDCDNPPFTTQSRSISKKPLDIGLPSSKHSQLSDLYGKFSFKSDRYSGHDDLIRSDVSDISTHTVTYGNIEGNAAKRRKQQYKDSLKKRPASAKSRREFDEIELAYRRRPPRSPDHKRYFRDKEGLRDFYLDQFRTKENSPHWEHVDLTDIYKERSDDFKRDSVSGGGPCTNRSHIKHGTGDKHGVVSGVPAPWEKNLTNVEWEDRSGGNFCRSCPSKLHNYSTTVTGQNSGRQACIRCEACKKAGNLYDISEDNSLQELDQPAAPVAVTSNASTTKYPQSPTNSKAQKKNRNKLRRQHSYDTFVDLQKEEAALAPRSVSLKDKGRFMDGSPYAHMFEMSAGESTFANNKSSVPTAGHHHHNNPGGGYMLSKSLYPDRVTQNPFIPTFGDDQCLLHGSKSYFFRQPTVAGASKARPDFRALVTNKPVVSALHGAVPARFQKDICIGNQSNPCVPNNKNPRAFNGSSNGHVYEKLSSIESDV

Row | Structure (SMILES) | IC50 [1] | IC50 [3] | other results
1 | CNC(=O)Cn1c(=O)[nH]c2ncc(-c3ccc(Cl)cc3)cc21 [Example 436, 2-[6-(4-Chlorophenyl)-2-oxo-3H-imidazo[4,5-b]pyridin-1-yl]-N-methyl-acetamide] | – | – | IC50 [2]: 4.7 µM
2 | O=C(Cn1c(=O)[nH]c2ncc(-c3cccc(C(F)(F)F)c3)cc21)NC1CCCC1 [Example 205, N-Cyclopentyl-2-[2-oxo-6-[3-(trifluoromethyl)phenyl]-3H-imidazo[4,5-b]pyridin-1-yl]acetamide] | – | 0.523 µM | –
3 | CCOc1ccccc1-c1cnc2[nH]c(=O)n(CC(=O)NC3CC3)c2c1 [Example 456, N-Cyclopropyl-2-[6-(2-ethoxyphenyl)-2-oxo-3H-imidazo[4,5-1D]pyridin-1-yl]acetamide] | 0.146 µM | – | –
4 | O=c1[nH]c2ncc(-c3cccc(C(F)(F)F)c3)cc2n1Cc1ccc(C(F)(F)F)nc1 [Example 257, 6-[3-(Trifluoromethyl)phenyl]-1-[[6-(trifluoromethyl)-3-pyridyl]methyl]-3H-imidazo[4,5-b]pyridin-2-one] | – | 1.46 µM | –
5 | Cn1c(=O)n(CC(=O)N2CC(F)(F)C2)c2cc(-c3ccc(F)c(C(F)F)c3)cnc21 [Example 586, 1-[2-(3,3-Difluoroazetidin-1-yl)-2-oxo-ethyl]-6-[3-(difluoromethyl)-4-fluoro-phenyl]-3-methyl-imidazo[4,5-b]pyridin-2-one] | 0.051 µM | – | –
6 | Cn1ccc(Cn2c(=O)[nH]c3ncc(-c4ccc(F)c(Cl)c4)cc32)n1 [Example 130, 6-(3-Chloro-4-fluoro-phenyl)-1-[(1-methylpyrazol-3-yl)methyl]-3H-imidazo[4,5-b]pyridin-2-one] | – | 4.73 µM | –
7 | COCCNC(=O)Cn1c(=O)[nH]c2ncc(-c3ccc(OC)cc3)cc21 [Example 444, N-(2-Methoxyethyl)-2-[6-(4-methoxyphenyl)-2-oxo-3H-imidazo[4,5-b]pyridin-1-yl]acetamide] | – | – | IC50 [2]: 0.747 µM
8 | Cc1c(F)ccc(-c2cnc3[nH]c(=O)n(Cc4ccccn4)c3c2)c1F [Example 280, 6-(2,4-Difluoro-3-methyl-phenyl)-1-(2-pyridylmethyl)-3H-imidazo[4,5-b]pyridin-2-one] | – | 0.576 µM | –
9 | Cc1cncc(Cn2c(=O)[nH]c3ncc(-c4cccc(Cl)c4)cc32)c1 [Example 273, 6-(3-Chlorophenyl)-1-[(5-methyl-3-pyridyl)methyl]-3H-imidazo[4,5-b]pyridin-2-one] | – | 0.096 µM | –
10 | COc1ccc(-c2cnc3[nH]c(=O)n(Cc4cccc(F)c4)c3c2)cc1C [Example 498, 1-[(3-Fluorophenyl)methyl]-6-(4-methoxy-3-methyl-phenyl)-3H-imidazo[4,5-b]pyridin-2-one] | 2.22 µM | – | –
11 | O=c1ccc(Cn2c(=O)[nH]c3ncc(-c4cccc(C(F)(F)F)c4)cc32)c[nH]1 [Example 244, 1-[(6-Oxo-1H-pyridin-3-yl)methyl]-6-[3-(trifluoromethyl)phenyl]-3H-imidazo[4,5-b]pyridin-2-one] | – | 1.89 µM | –
12 | Cc1cc(-c2cnc3[nH]c(=O)n(Cc4ncccc4C)c3c2)ccc1F [Example 316, 6-(4-Fluoro-3-methyl-phenyl)-1-[(3-methyl-2-pyridyl)methyl]-3H-imidazo[4,5-b]pyridin-2-one] | – | 0.114 µM | –
13 | Cc1nc(Cn2c(=O)[nH]c3ncc(-c4ccc(F)c(F)c4)cc32)no1 [Example 144, 6-(3,4-Difluorophenyl)-1-[(5-methyl-1,2,4-oxadiazol-3-yl)methyl]-3H-imidazo[4,5-b]pyridin-2-one] | – | 0.107 µM | –
14 | O=c1[nH]c2ncc(-c3cc(F)cc(F)c3)cc2n1Cc1cccc(Cl)c1 [Example 504, 1-[(3-Chlorophenyl)methyl]-6-(3,5-difluorophenyl)-3H-imidazo[4,5-b]pyridin-2-one] | – | – | IC50 [2]: 4.13 µM
15 | Cc1cc(-c2cnc3[nH]c(=O)n(CC(=O)N(C)C)c3c2)sc1Cl [Example 321, 2-[6-(5-Chloro-4-methyl-2-thienyl)-2-oxo-3H-imidazo[4,5-b]pyridin-1-yl]-N,N-dimethyl-acetamide] | 0.014 µM | – | –
16 | Cc1cncc(Cn2c(=O)[nH]c3ncc(-c4ccc(F)c(C(F)(F)F)c4)cc32)c1 [Example 309, 6-[4-Fluoro-3-(trifluoromethyl)phenyl]-1-[(5-methyl-3-pyridyl)methyl]-3H-imidazo[4,5-b]pyridin-2-one] | – | 0.316 µM | –
17 | O=c1[nH]c2ncc(-c3cccc(Cl)c3)cc2n1CCN1CCC1 [Example 158, 1-[2-(Azetidin-1-yl)ethyl]-6-(3-chlorophenyl)-3H-imidazo[4,5-b]pyridin-2-one] | – | 0.201 µM | –
18 | Cc1cc(-c2cnc3[nH]c(=O)n(Cc4ccn(C)n4)c3c2)ccc1F [Example 129, 6-(4-Fluoro-3-methyl-phenyl)-1-[(1-methylpyrazol-3-yl)methyl]-3H-imidazo[4,5-b]pyridin-2-one] | – | 0.394 µM | –

Continued, in another order:

Row | IC50 [1] | IC50 [3] | Structure (SMILES) | other results
19 | 0.053 µM | – | CN(C)C(=O)Cn1c(=O)n(C)c2ncc(-c3ccc(F)c(F)c3)cc21 [Example 421, 2-[6-(3,4-Difluorophenyl)-3-methyl-2-oxo-imidazo[4,5-b]pyridin-1-yl]-N,N-dimethyl-acetamide] | –
20 | – | 22.6 µM | Cn1c(=O)n(Cc2cccnc2)c2cc(-c3cccc(F)c3)cnc21 [Example 51, 6-(3-Fluorophenyl)-3-methyl-1-(3-pyridylmethyl)imidazo[4,5-b]pyridin-2-one] | –
21 | – | 9.35 µM | Cc1c(-c2cnc3[nH]c(=O)n(CCN4CC(F)C4)c3c2)cccc1C(F)(F)F [Example 181, 1-[2-(3-Fluoroazetidin-1-yl)ethyl]-6-[2-methyl-3-(trifluoromethyl)phenyl]-3H-imidazo[4,5-b]pyridin-2-one] | –
22 | 0.066 µM | – | CN(C)C(=O)Cn1c(=O)n(CF)c2ncc(-c3ccc(C(F)(F)F)s3)cc21 [Example 596, 2-[3-(Fluoromethyl)-2-oxo-6-[5-(trifluoromethyl)-2-thienyl]imidazo[4,5-b]pyridin-1-yl]-N,N-dimethyl-acetamide] | –
23 | 0.063 µM | – | Cc1cc(-c2cnc3c(c2)n(Cc2cccnc2)c(=O)n3C)sc1Cl [Example 365, 6-(5-Chloro-4-methyl-2-thienyl)-3-methyl-1-(3-pyridylmethyl)imidazo[4,5-b]pyridin-2-one] | –
24 | – | 4.23 µM | Cc1c(-c2cnc3[nH]c(=O)n(CCN4CCC4)c3c2)cccc1C(F)(F)F [Example 168, 1-[2-(Azetidin-1-yl)ethyl]-6-[2-methyl-3-(trifluoromethyl)phenyl]-3H-imidazo[4,5-b]pyridin-2-one] | –
25 | 0.016 µM | – | Cn1c(=O)n(CC(=O)N2CC(F)C2)c2cc(-c3cc(F)c(F)c(F)c3)cnc21 [Example 402, 1-[2-(3-Fluoroazetidin-1-yl)-2-oxo-ethyl]-3-methyl-6-(3,4,5-trifluorophenyl)imidazo[4,5-b]pyridin-2-one] | –
26 | 0.031 µM | – | Cn1c(=O)n(CC(=O)N2CC(F)(F)C2)c2cc(-c3cccc(F)c3)cnc21 [Example 417, 1-[2-(3,3-Difluoroazetidin-1-yl)-2-oxo-ethyl]-6-(3-fluorophenyl)-3-methyl-imidazo[4,5-b]pyridin-2-one] | –
27 | 0.028 µM | – | CN(C)C(=O)Cn1c(=O)n(C)c2ncc(-c3cccc(C(F)(F)F)c3F)cc21 [Example 424, 2-[6-[2-Fluoro-3-(trifluoromethyl)phenyl]-3-methyl-2-oxo-imidazo[4,5-b]pyridin-1-yl]-N,N-dimethyl-acetamide] | –
28 | – | 8.71 µM | Cn1c(=O)n(Cc2ncccn2)c2cc(-c3cccc(F)c3)cnc21 [Example 56, 6-(3-Fluorophenyl)-3-methyl-1-(pyrimidin-2-ylmethyl)imidazo[4,5-b]pyridin-2-one] | –
29 | 0.081 µM | – | Cc1c(F)ccc(-c2cnc3c(c2)n(Cc2cncc(F)c2)c(=O)n3C)c1F [Example 341, 6-(2,4-Difluoro-3-methyl-phenyl)-1-[(5-fluoro-3-pyridyl)methyl]-3-methyl-imidazo[4,5-b]pyridin-2-one] | –
30 | 0.05 µM | – | CCC(=O)Cn1c(=O)n(C)c2ncc(-c3cccc(C(F)(F)F)c3)cc21 [Example 388, 3-Methyl-1-(2-oxobutyl)-6-[3-(trifluoromethyl)phenyl]imidazo[4,5-b]pyridin-2-one] | –
31 | 0.028 µM | – | Cc1nnc(Cn2c(=O)n(C)c3ncc(-c4ccc(F)c(C)c4F)cc32)o1 [Example 575, 6-(2,4-Difluoro-3-methyl-phenyl)-3-methyl-1-[(5-methyl-1,3,4-oxadiazol-2-yl)methyl]imidazo[4,5-b]pyridin-2-one] | –
32 | – | 0.031 µM | Cn1c(=O)n(CC(=O)N2CCC2)c2cc(-c3ccc(F)s3)cnc21 [Example 81, 1-[2-(Azetidin-1-yl)-2-oxo-ethyl]-6-(5-fluoro-2-thienyl)-3-methyl-imidazo[4,5-b]pyridin-2-one] | –
33 | 0.146 µM | – | Cc1nnc(Cn2c(=O)n(C)c3ncc(-c4ccc(C(F)(F)F)s4)cc32)o1 [Example 567, 3-Methyl-1-[(5-methyl-1,3,4-oxadiazol-2-yl)methyl]-6-[5-(trifluoromethyl)-2-thienyl]imidazo[4,5-b]pyridin-2-one] | –
34 | 0.031 µM | – | Cn1c(=O)n(CC(=O)N2CC(F)C2)c2cc(-c3ccc(F)c(C(F)(F)F)c3)cnc21 [Example 407, 1-[2-(3-Fluoroazetidin-1-yl)-2-oxo-ethyl]-6-[4-fluoro-3-(trifluoromethyl)phenyl]-3-methyl-imidazo[4,5-b]pyridin-2-one] | –
35 | – | 0.081 µM | Cn1c(=O)n(CC(=O)N2CCC2)c2cc(-c3ccc(C4CC4)s3)cnc21 [Example 105, 1-[2-(Azetidin-1-yl)-2-oxo-ethyl]-6-(5-cyclopropyl-2-thienyl)-3-methyl-imidazo[4,5-b]pyridin-2-one] | –
36 | – | 0.725 µM | Cc1c(F)ccc(-c2cnc3c(c2)n(Cc2ccncc2)c(=O)n3C)c1F [Example 66, 6-(2,4-Difluoro-3-methyl-phenyl)-3-methyl-1-(4-pyridylmethyl)imidazo[4,5-b]pyridin-2-one] | –
37 | – | 0.223 µM | Cn1c(=O)n(Cc2cccnn2)c2cc(-c3ccc(F)c(F)c3)cnc21 [Example 61, 6-(3,4-Difluorophenyl)-3-methyl-1-(pyridazin-3-ylmethyl)imidazo[4,5-b]pyridin-2-one] | –
